Literature values in patent US20150209310A1, “NACA FOR THE TREATMENT OF CHRONIC OR LOW IMPACT BRAIN TRAUMA” (Brighton Biotech, Inc., priority 2014, published 2015).

Settings: background statement

For CC(=O)N[C@@H](CS)C(=O)O [NAC, N-acetyl-L-cysteine], the “crossing of the blood-brain barrier” value is given as “inability to cross the blood-brain barrier”.
